# According to patent US9499519B2, “Fused pyrimidine compounds and use thereof” (Medivation Technologies, Inc., priority 2012, dated 2016):
# Key:
# IGF-1R = target: T1, IGF-1R (Homo sapiens, UniProt P08069); experiment: In vitro IGF-1R enzymatic assay (ADP-Glo kinase assay); type: biochemical; settings: activated IGF-1R, 30 nM, average; read-out: % Inh @ 30 nM Avg
# T1 construct: purchased Millipore 14-802
# Experimental: IC50 values of the compounds of the invention against IGF-1R and IR were measured in vitro using an ADP-Glo kinase assay Kit (Promega). […] Kinase reactions in both assays were conducted at 30° C. for 20 min with increasing concentrations of compounds of the invention.
# Additional compounds of the invention were screened against activated IGF-1R.
# [1] = tested on: Akt phosphorylation induced by IGF-1R; experiment: Western blot analysis of Akt phosphorylation induced by IGF-1 in HT-29 cells; type: cell-based, Human; settings: for Levels of phosphorylated AKT in treated cells (pAKT/actin): HT-29 cells, IGF-1; for p-AKT relative to levels with 0.1 nM compound: Table B2 lower part; for Normalized phosphorylated AKT (relative to actin) levels relative to 0.1 nM compound treatment: Table B2 upper part
# Experimental: Inhibition of Akt phosphorylation induced by IGF-1R was studied by western blot analysis. Human colon carcinoma HT-29 cells were seeded at a density of 8×10^4 cells/well in a 24-well plate and grown in DME/F12 media containing 10% FBS for 24 h. The cells were then depleted of serum by incubation in DME/F12 media lacking FBS for 24 h. […] […] Lysed cells were centrifuged at 13,000 rpm for 15 min and the protein concentration soluble fraction (supernatant) of each sample was determined using a BCA protein assay (Pierce).
# T1 sequence (P08069 31-1367): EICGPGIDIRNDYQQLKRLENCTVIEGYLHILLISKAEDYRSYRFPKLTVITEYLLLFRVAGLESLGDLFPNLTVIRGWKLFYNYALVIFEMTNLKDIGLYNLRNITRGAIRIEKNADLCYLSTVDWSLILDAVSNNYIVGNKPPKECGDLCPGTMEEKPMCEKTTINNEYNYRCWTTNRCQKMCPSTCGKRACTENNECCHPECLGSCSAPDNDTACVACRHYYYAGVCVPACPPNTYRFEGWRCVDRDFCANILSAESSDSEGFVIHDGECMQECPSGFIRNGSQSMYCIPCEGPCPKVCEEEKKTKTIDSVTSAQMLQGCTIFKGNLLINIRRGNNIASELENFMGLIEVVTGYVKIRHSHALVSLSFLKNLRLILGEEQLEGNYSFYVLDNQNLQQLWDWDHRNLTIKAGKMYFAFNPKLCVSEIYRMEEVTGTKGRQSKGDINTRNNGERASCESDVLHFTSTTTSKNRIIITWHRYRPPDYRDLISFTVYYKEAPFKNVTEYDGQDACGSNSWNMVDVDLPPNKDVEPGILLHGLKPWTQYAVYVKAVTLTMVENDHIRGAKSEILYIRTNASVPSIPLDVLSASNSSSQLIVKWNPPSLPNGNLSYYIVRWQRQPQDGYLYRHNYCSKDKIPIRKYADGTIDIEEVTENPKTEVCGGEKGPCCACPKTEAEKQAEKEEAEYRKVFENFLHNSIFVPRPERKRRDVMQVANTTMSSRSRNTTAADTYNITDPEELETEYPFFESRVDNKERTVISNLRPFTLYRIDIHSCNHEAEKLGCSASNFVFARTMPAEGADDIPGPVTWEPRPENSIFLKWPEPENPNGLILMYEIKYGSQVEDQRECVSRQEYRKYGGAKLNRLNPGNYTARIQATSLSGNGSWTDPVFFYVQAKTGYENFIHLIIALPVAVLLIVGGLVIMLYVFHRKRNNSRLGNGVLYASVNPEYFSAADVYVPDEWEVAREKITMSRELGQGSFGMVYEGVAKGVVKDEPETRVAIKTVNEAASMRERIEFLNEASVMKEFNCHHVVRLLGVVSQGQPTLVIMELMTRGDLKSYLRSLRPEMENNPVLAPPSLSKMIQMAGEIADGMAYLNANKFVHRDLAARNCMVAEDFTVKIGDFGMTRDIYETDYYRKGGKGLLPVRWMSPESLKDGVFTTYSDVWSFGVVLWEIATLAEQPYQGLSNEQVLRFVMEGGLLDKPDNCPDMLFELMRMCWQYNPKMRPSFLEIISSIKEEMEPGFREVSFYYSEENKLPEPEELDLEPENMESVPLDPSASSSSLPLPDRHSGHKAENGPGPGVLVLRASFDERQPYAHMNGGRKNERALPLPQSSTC
Compound,inhibition at 0.03 µM (IGF-1R) [%],Levels of phosphorylated AKT in treated cells (pAKT/actin) ([1]; 0.1 nM compound),Levels of phosphorylated AKT in treated cells (pAKT/actin) ([1]; 1 nM compound),Levels of phosphorylated AKT in treated cells (pAKT/actin) ([1]; 10 nM compound),Levels of phosphorylated AKT in treated cells (pAKT/actin) ([1]; 100 nM compound),p-AKT relative to levels with 0.1 nM compound ([1]; 0.1 nM),Normalized phosphorylated AKT (relative to actin) levels relative to 0.1 nM compound treatment ([1]; 0.1 nM),p-AKT relative to levels with 0.1 nM compound ([1]; 1 nM),Normalized phosphorylated AKT (relative to actin) levels relative to 0.1 nM compound treatment ([1]; 1 nM),p-AKT relative to levels with 0.1 nM compound ([1]; 10 nM),Normalized phosphorylated AKT (relative to actin) levels relative to 0.1 nM compound treatment ([1]; 10 nM),p-AKT relative to levels with 0.1 nM compound ([1]; 100 nM),Normalized phosphorylated AKT (relative to actin) levels relative to 0.1 nM compound treatment ([1]; 100 nM)
"COC1CC(C(=O)Nc2ccc(F)nc2)N(c2nc3c(c(Nc4cc(C5CC5)[nH]n4)n2)CCC3)C1 (single isomer, unassigned) [Compound 21b, 1-(4-(5-cyclopropyl-1H-pyrazol-3-ylamino)-6,7-dihydro-5H-cyclopenta[d]pyrimidin-2-yl)-N-(6-fluoropyridin-3-yl)-4-methoxypyrrolidine-2-carboxamide]",41,–,–,–,–,–,–,–,–,–,–,–,–
"COC1CC(C(=O)Nc2ccc(F)nc2)N(c2nc3c(c(Nc4cc(C5CC5)[nH]n4)n2)CCC3)C1 (single isomer, unassigned) [Compound 21a, 1-(4-(5-cyclopropyl-1H-pyrazol-3-ylamino)-6,7-dihydro-5H-cyclopenta[d]pyrimidin-2-yl)-N-(6-fluoropyridin-3-yl)-4-methoxypyrrolidine-2-carboxamide]",14,–,–,–,–,–,–,–,–,–,–,–,–
"CC1(O)CC(c2nc(-c3ccc4ccc(-c5ccccc5)nc4c3)c3c(N)nccn23)C1 (stereo not drawn) [OSI-906, 3-[8-Amino-1-(2-phenyl-7-quinolyl)imidazo[1,5-a]pyrazin-3-yl]-1-methyl-cyclobutanol, reference compound]",–,1.06,0.85,1.58,0.40,–,–,–,–,–,–,–,–
"O=C(Nc1ccc(F)nc1)C1CCCCN1c1nc2c(c(Nc3cc(C4CC4)[nH]n3)n1)CCC2 (single isomer, unassigned) [Compound 9b, 1-(4-(3-cyclopropyl-1H-pyrazol-5-ylamino)-6,7-dihydro-5H-cyclopenta[d]pyrimidin-2-yl)-N-(6-fluoropyridin-3-yl)piperidine-2-carboxamide]",–,1.46,1.55,1.18,0.78,1.0,1.0,1.1,1.1,0.8,0.8,0.5,0.5
"O=C(Nc1ccc(F)nc1)C1CCCCN1c1nc2c(c(Nc3cc(C4CC4)[nH]n3)n1)CCC2 (single isomer, unassigned) [Compound 9a, 1-(4-(3-cyclopropyl-1H-pyrazol-5-ylamino)-6,7-dihydro-5H-cyclopenta[d]pyrimidin-2-yl)-N-(6-fluoropyridin-3-yl)piperidine-2-carboxamide]",–,1.24,1.26,0.53,0.02,1.0,1.0,1.0,1.0,0.4,0.4,0.0,0.0
"O=C(Nc1ccc(F)nc1)C1CCCCN1c1nc2c(c(Nc3cc(C4CCCC4)[nH]n3)n1)CCC2 (single isomer, unassigned) [Compound 17a, 1-(4-(5-cyclopentyl-1H-pyrazol-3-ylamino)-6,7-dihydro-5H-cyclopenta[d]pyrimidin-2-yl)-N-(6-fluoropyridin-3-yl)piperidine-2-carboxamide]",–,0.89,1.22,1.01,1.08,1.0,1.0,1.4,1.4,1.1,1.1,1.2,1.2
"O=C(Nc1ccc(F)nc1)C1CCCN1c1nc2c(c(Nc3cc(C4CC4)[nH]n3)n1)CCC2 (racemic) [Compound 2, 1-(4-(5-cyclopropyl-1H-pyrazol-3-ylamino)-6,7-dihydro-5H-cyclopenta[d]pyrimidin-2-yl)-N-(6-fluoropyridin-3-yl)pyrrolidine-2-carboxamide]",–,1.04,0.91,0.07,0.00,1.0,1.0,0.9,0.9,0.1,0.1,0.0,0.0
"O=C(Nc1ccc(F)nc1)C1CCCN1c1nc2c(c(Nc3cc(C4CCCC4)[nH]n3)n1)CCC2 (racemic) [Compound 4, 1-(4-(3-cyclopentyl-1H-pyrazol-5-ylamino)-6,7-dihydro-5H-cyclopenta[d]pyrimidin-2-yl)-N-(6-fluoropyridin-3-yl)pyrrolidine-2-carboxamide]",–,1.92,1.59,1.01,0.06,1.0,1.0,0.8,0.8,0.5,0.5,0.0,0.0
"O=C(Nc1ccc(F)nc1)C1CCCCN1c1nc2c(c(Nc3cc(C4CC4)[nH]n3)n1)CCC2 (racemic) [Compound 9, 1-(4-(3-cyclopropyl-1H-pyrazol-5-ylamino)-6,7-dihydro-5H-cyclopenta[d]pyrimidin-2-yl)-N-(6-fluoropyridin-3-yl)piperidine-2-carboxamide]",–,0.67,0.71,0.07,0.00,1.0,1.0,1.1,1.1,0.1,0.1,0.0,0.0
"O=C(Nc1cnccn1)C1CCCN1c1nc2c(c(Nc3cc(C4CC4)[nH]n3)n1)CCC2 (racemic) [Compound 6, 1-(4-(3-cyclopropyl-1H-pyrazol-5-ylamino)-6,7-dihydro-5H-cyclopenta[d]pyrimidin-2-yl)-N-(pyrazin-2-yl)pyrrolidine-2-carboxamide]",–,1.54,0.22,0.01,0.01,1.0,1.0,0.1,0.1,0.0,0.0,0.0,0.0
"O=C(Nc1cccnc1)C1CCCN1c1nc2c(c(Nc3cc(C4CC4)[nH]n3)n1)CCC2 (single isomer, unassigned) [Compound 3b, 1-(4-(5-cyclopropyl-1H-pyrazol-3-ylamino)-6,7-dihydro-5H-cyclopenta[d]pyrimidin-2-yl)-N-(pyridin-3-yl)pyrrolidine-2-carboxamide]",–,2.25,1.70,0.57,0.02,1.0,1.0,0.8,0.8,0.3,0.3,0.0,0.0
